# In patent US20150125406A1, “TOPICAL SKIN CARE COMPOSITION” (JAFER LIMITED, priority 2012, published 2015):
# Columns and labels:
# Assay type in all cases: cell-based
# B16 melanocytes [1] = test: Melanin production/secretion in melanocytes, Study II; conditions: 20X dilution of dilute stock solutions; 72 hours
# Method: (§1) Cells (B16 melanocytes) were plated in phenol-free Dulbecco's Modified Eagle's Medium (DMEM) supplemented with 5% fetal bovine serum (FBS) at 10,000 cells/well. After 24 hours, test material was added and the cells were incubated with the test material for 48 hours. The melanin was quantified by instrumentally measuring absorbance with a BIORAD microplate spectrophotometer 3550-UV at 490 nanometers. Cultures were also photographed (CANON REBEL digital camera). Statistical significance of the values was calculated using paired t-test and threshold statistical significance was fixed at p=0.05 and 15% difference as compare to the water control group. Cell numbers were measured using a sulforhodamine B method (described by Skehan et al, “New colorimetric cytotoxicity assay for anticancer-drug screening”, J. Natl Cancer Inst., 82:1107, 1990, the relevant disclosures of which are incorporated herein by reference). The colorimetric signal proportional to cell numbers was acquired with the microplate spectrophotometer 3550-UV at 550 nanometers.
# Following the general procedure of Study I, a further set of dilute aqueous stock solutions was prepared containing each component individually (Compositions 6M-O in Table 10). […] For comparison, a dilute stock solution of hydroquinone (Composition 6Q) was included. A 20-fold (20×) dilution (distilled water) of each stock solution was selected for the in vitro test to minimize or avoid cytotoxicity of melanocytes in the cell growth medium.
# Distilled water was used as the negative control. As a positive control for validating the test, a dilute stock solutions of kojic acid (0.2%, 0.04%) were prepared and a 20× dilution (0.01%, 0.002%) tested.
# (§2) The methodology of Study I was repeated, except that the test was terminated after 72 hours for quantifying melanin pigmentation.
# B16 melanocytes [2] = test: Melanin production/secretion in melanocytes, Study I; conditions: 48 hours incubation; for effect on pigmentation / inhibition of melanin production/secretion: 20X dilution of stock solutions
# Method: This example illustrates the synergistic efficacy of the combination of the complexion modifying components (a) 4-hexylresorcinol, (b) niacinamide and (c) 1-amino-ethylphosphinic acid, compared to the effect of the individual components, based on an in vitro evaluation of melanin production/secretion in melanocytes. Components (a), (b) and (c) were evaluated individually and in combination with one another as described below in Studies I and II, and in Tables 9 and 10.
# (§3) One set of aqueous stock solutions was prepared containing each component individually (as supplied) in an amount representing the active concentration present in a composition of Example 1-B (Compositions 6A-C in Table 9). A corresponding second and third set of stock solutions was prepared, respectively containing two-times (Compositions 6E-G in Table 9) and four-times (Compositions I-K in Table 9) the amount of the foregoing concentrations. Combinations of each component were prepared from the stock solutions of each component (Compositions. 6D, 6H, and 6L in Table 9) to provide amounts representing the weight ratio of each component to one another present (active basis) in a composition of Example 1-B as shown below in Notes 1-3 of Table 9. A 20-fold (20×) dilution (distilled water) of each stock solution was selected for the in vitro test to minimize or avoid cytotoxicity of melanocytes in the cell growth medium.
# Component (c) as supplied is described in Note (a) to Table 2. As a positive control, stock solutions of kojic acid solutions were prepared at an active concentration of 2%, 0.5% and 0.1% to provide a concentration of 0.1%, 0.025% and 0.005%, respectively, at a 20× dilution. Distilled water was used as the negative control.
# as §1
# B16 melanocytes [3] = test: Cell numbers by sulforhodamine B method, Study I; conditions: 20X dilution of stock solutions; 48 hours incubation
# Method: as §3, §1
# B16 melanocytes [4] = test: Cell numbers by sulforhodamine B method, Study II; conditions: 20X dilution of dilute stock solutions; 72 hours
# Method: as §1
# Following the general procedure of Study I, a further set of dilute aqueous stock solutions was prepared containing each component individually (Compositions 6M-O in Table 10). A stock solution containing a combinations of each component was prepared from the stock solutions of each component (Composition 6P in Table 10) to provide amounts representing the weight ratio of each component to one another present in a composition of Example 1-B as shown below in Note 1 to Table 10. For comparison, a dilute stock solution of hydroquinone (Composition 6Q) was included. A 20-fold (20×) dilution (distilled water) of each stock solution was selected for the in vitro test to minimize or avoid cytotoxicity of melanocytes in the cell growth medium.
# as §2
Structure (SMILES),inhibitory effect on pigmentation (B16 melanocytes [1]),effect on pigmentation / inhibition of melanin production/secretion (B16 melanocytes [2]),effect on cell numbers / cytotoxicity (B16 melanocytes [3]),effect on cell numbers / cytotoxicity (B16 melanocytes [4]),inhibition of melanin production/secretion (B16 melanocytes [1]),pigmentation expressed as % (water control 100%) (B16 melanocytes [2]; 20X dilution)
CC(N)[PH](=O)O (stereo not shown) [1-amino-ethylphosphinic acid],no inhibitory effect,no effect,no effect,no inhibitory effect,,
CCCCCCc1ccc(O)cc1O [4-hexylresorcinol],,,cytotoxic or cytostatic,cytotoxic,,
Oc1ccc(O)cc1 [hydroquinone],,,,,≥ 50%,
O=c1cc(CO)occ1O [kojic acid],,dose-dependent pigmentation-inhibitory effect,without significantly impacting cell proliferation,without significantly impacting cell proliferation,about 73%,70-90%
NC(=O)c1cccnc1 [niacinamide],no inhibitory effect,no effect,no effect,no inhibitory effect,,
